Reference: patent US10398592B2, “Diagnostic methods and apparatus” (ForSight Vision4, Inc., priority 2011, dated 2019)
Where two headings read alike, the source gives them in different places.

Assays:
[1] = Diffusion model of release from the therapeutic device reservoir through the porous structure
Source text: The release rate of therapeutic agent 110 through a porous body, such as a sintered porous metal structure or a porous glass structure, may be described by diffusion of the therapeutic agent 110 within the porous structure 150 with the channel parameter, and with an effective diffusion coefficient equal to the diffusion coefficient of the therapeutic agent 110 in the liquid that fills the reservoir multiplied by the Porosity and a Channel Parameter of the porous body: Release Rate=(DP/F)A(cR−cV)/L, where: cR=Concentration in reservoir cV=Concentration outside of the reservoir or in the vitreous D=Diffusion coefficient of the therapeutic agent in the reservoir solution P=Porosity of porous structure F=Channel parameter that may correspond to a tortuosity parameter of channels of porous structure A=Area of porous structure L=Thickness (length) of porous structure Cumulative Release=1−cR/cR0=1−exp((−DPA/FLVR)t), where t=time, Vr=reservoir volume
A model can be derived to describe the release rate as a function of time by relating the change of concentration in the reservoir 140 to the release rate described above. This model assumes a solution of therapeutic agent 110 where the concentration in the reservoir 140 is uniform. In addition, the concentration in the receiving fluid or vitreous is considered negligible (cV=0). Solving the differential equation and rearrangement yields the following equations describing the concentration in the reservoir as a function of time, t, and volume of the reservoir, VR, for release of a therapeutic agent 110 from a solution in a reservoir though a porous structure 150. cR=cR0 exp((−DPA/FLVR)t) and Cumulative Release=1−cR/cR0
The molecular weight of the stabilizer can be provided in 1k Dalton increments from about 1k Dalton to about 200k Daltons and provide in a Table having about 200 rows similar to Table 2. The parameters of Table 2 determined such as the half-life in the device, the equivalent volume, the equivalent diameter, and % in the device at the half-life of the therapeutic agent 110. The table may comprise a row for each molecular weight in 1k Dalton increments, and the % of stabilizer in the device compared with the therapeutic agent 110. The table may include columns for two half-lives of the therapeutic agent, three half-lives of the therapeutic agent, four half-lives of the therapeutic agent, and the corresponding percentage of stabilizer remaining in the device.
FIG. 104 and Table 3 show concentrations of therapeutic agent, stabilizer and the ratio of stabilizer to therapeutic agent in accordance with an exemplary embodiment, for example. The concentrations and rations can be determined by a person of ordinary skill in the art based on the teachings described herein. […] Additional concentrations of the therapeutic agent can be used, for example greater amounts of therapeutic agent.

[2] = vitreous, human eye; cited from earlier work
[3] = vitreous, rabbit; cited from earlier work
[4] = vitreous, monkey; cited from earlier work
[5] = Diffusion coefficients and equivalent size estimated from molecular weight; assay type: physicochemical; conditions: for Diff Coeff: Table 2, 37 C, estimated from molecular weight
Source text: If the reservoir solution is aqueous or has a viscosity similar to water, the value for the diffusion coefficient of the therapeutic agent (TA) in water at the temperature of interest may be used. […] (Molokhia et al, Exp Eye Res 2008): DTA,37C=DBSA,20C(η20C/η37C)(MWBSA/MWTA)^1/3 where MW refers to the molecular weight of either BSA or the test compound and η is the viscosity of water.
The diffusion constant of the stabilizer can be determined, for example, based on an estimate of hydrodynamic radius corresponding to the cube root of the molecular weight as described herein.
The diffusion coefficients of Table 2 can be determined based on weight for molecular weights up to about 2.5 M Daltons, and based on size above about 2.5 M Daltons.

[6] = assumes unit density, per molecule

Compound | Device Half-life relative to Ranibiz. [1] | half-life [2] [h] | half-life [3] | half-life [4] | Diff Coeff [5] [cm^2/s] | Diff Coeff ([5]; listed as trehalose) [cm^2/s] | Equiv volume [5, 6] [nm^3] | equivalent diameter [5, 6] [nm] | D/(Ran D) ([5]; diffusion relative to Ranibizumab) | relative amount remaining in therapeutic device 100 [1] | relative half-life in device 100 ([1]; % of ranibizumab) | diffusion coefficient and rate of release through the porous structure relative to Ranibizumab ([1]; faster than Ranibizumab)
Ranibizumab | 1.00 | 220 | approximately 3 days | approximately 3 days | – | – | – | – | – | – | – | –
OC[C@H]1O[C@H](O[C@H]2O[C@H](CO)[C@@H](O)[C@H](O)[C@H]2O)[C@H](O)[C@@H](O)[C@@H]1O [Trehalose] | 0.20 | – | – | – | 5.0E−06 | ~5.0E-6 | 0.6 | ~1.1 | 5.03 | about 3.1% | about 20% | approx. 5 times
